Source: PMC12440775 (Frontiers in Pharmacology, 2025)
Read-outs that look alike come from different tables or passages of the source.

Tests used:
[1] = Urinary excretion of unchanged FDV after single ascending dose (Part 1); format: in vivo, human; details: gMean (gCV%)
Description: (§1) Six volunteers received the active drug at each dose level dissolved in a polyethylene glycol (PEG)/tromethamine (TRIS)/meglumine solution, and two received a placebo. One dose level was tested within each group. Subject groups were dosed and evaluated sequentially, beginning with the lowest-dose group and proceeding stepwise to the highest-dose group. The next higher dose was administered only if no safety concerns arose during treatment of the preceding group.
A blank urine sample was collected prior to drug administration, and two 10-mL aliquots were retained to be checked for analytical interference. All urine voided during the sampling intervals 0–4, 4–12, 12–24, and 24–48 h after administration was collected in containers (Figure 1). Subjects were asked to completely void their bladder at the end of each collection interval. The urine volume for each collection interval was documented. Two aliquots of approximately 5 mL were taken and frozen at −20 °C or below and stored for bioanalytical measurement. Until shipped on dry ice to the analytical laboratory, the urine samples were stored at −20 °C or below at the clinical site and stored in the analytical laboratory at −20 °C or below until analysis.
(§2) Standard formulas for non-compartmental pharmacokinetic analysis provided by WinNonlin were used in determination of the maximum concentration (Cmax), time to maximum concentration (tmax), oral clearance (CL/F), mean residence time (MRTpo), and apparent volume distribution in terminal phase (Vz/F). The area under the plasma concentration–time curve (AUC) was calculated using a linear up/log down trapezoidal algorithm. The predicted concentration at the last time-point with quantifiable concentration was used for extrapolation of AUC. The fraction excreted as unchanged drug in urine (fe) was calculated as the percentage of the amount of drug excreted in urine as unchanged drug (Aet1–t2) compared to the administered dose ([Huang et al., 2008b]).

[2] = HCV-infected patients, ref Huang et al., cited from earlier work
[3] = design: method as in Duan et al., 2012; details: rats; ref Duan et al., 2012; cited from earlier work
CYP2C9 = details: therapeutic dose of 120 mg QD; cited from earlier work
human Hepato Pac model = tested on: human Hepato Pac model; design: method as in Ramsden et al., 2014b; details: ref Ramsden et al., 2014b; cited from earlier work
CYP3A4 = details: therapeutic dose of 120 mg QD; cited from earlier work
HCV = tested on: HCV; design: method as in Ferenci et al., 2015; details: in combination with PegIFN and RBV, treatment-naïve patients; ref Ferenci et al., 2015; cited from earlier work
[4] = Single ascending dose plasma pharmacokinetics (Part 1); format: in vivo, human; details: for half-life / AUC(0-inf) / Cmax / Tmax / AUC(0-t) / Vd/F: male, human, plasma; for Vd/F: read-out: Vz/F
Description: One dose level was tested within each group. Subject groups were dosed and evaluated sequentially, beginning with the lowest-dose group and proceeding stepwise to the highest-dose group.
Blood samples were taken pre-dose (0) and at prespecified time points after dosing (Figure 1). At each time point, approximately 4.9 mL of blood was drawn into evacuated collection tubes, containing ethylene diamine tetraacetate (EDTA) anticoagulant and labeled with sample identification information. The EDTA-anticoagulated blood samples were immediately placed on ice and centrifuged at 4 °C and approximately 2000–4,000 g for approximately 10 min in a refrigerated centrifuge as soon as possible after collection. The harvested plasma was split into two aliquots, immediately placed in appropriately labeled tubes, and stored at −20 °C or below until shipment.
as §2
The power model was used for the analysis of dose proportionality in terms of AUC0– ∞ and Cmax. The model is described using the following equation: Ykm = α•Dk ^β •ekm. […] Dose linearity requires that β equals 1. […] Statistical analysis was performed using the SAS® program system (version 8.2, Cary, NC) ([Huang et al., 2008b]).

[5] = Safety and tolerability, food effect part (Part 2); format: in vivo, human
Description: as §1
Safety was assessed throughout the study by monitoring changes in clinical laboratory parameters (e.g., serum biochemistry, hematology, and urinalysis), 12-lead electrocardiograms, or vital signs (blood pressure, pulse rate, and temperature measurements); monitoring for occurrence of AEs); and carrying out physical examinations.

C=C[C@@H]1C[C@]1(NC(=O)[C@@H]1C[C@@H](Oc2cc(-c3csc(NC(=O)C(C)C)n3)nc3c(Br)c(OC)ccc23)CN1C(=O)[C@@H](NC(=O)OC1CCCC1)C(C)(C)C)C(=O)O [FDV, Faldaprevir]
Fe0–48h (fraction excreted in urine) ([1]; FDV 48 mg single oral dose): 0.01 (165) %
Fe0–48h (fraction excreted in urine) ([1]; FDV 120 mg single oral dose): 0.02 (93) %
Fe0–48h (fraction excreted in urine) ([1]; FDV 240 mg single oral dose): 0.04 (68) %
Fe0–48h (fraction excreted in urine) ([1]; FDV 480 mg single oral dose): 0.04 (37) %
Fe0–48h (fraction excreted in urine) ([1]; FDV 800 mg single oral dose): 0.03 (110) %
Fe0–48h (fraction excreted in urine) ([1]; FDV 1,200 mg single oral dose): 0.03 (54) %
FDV exposure at 240 mg compared to the 120-mg dose, based on trough concentrations [2]; 2016: approximately 5 fold
FDV exposure at 240 mg compared to the 120-mg dose, based on AUC0–24,ss [2]; 2021: up to 7 fold
Enrichment in the liver compared with plasma [3]: 42 fold
Effect on CYP2C9 (CYP2C9): inhibitory effects
Predicted enrichment in the liver in humans (human Hepato Pac model): 22–32 fold
Effect on CYP3A4 (CYP3A4): weak inhibitory effects
Sustained virologic response (SVR) rate (HCV): up to 84%
Inter-subject variability, gCV of AUC0–∞ ([4]; higher-dose groups): 60–80%
half-life ([4]; oral, range over single doses of 4–1,200 mg, read-out: gMean t1/2): 15.5 to 39.2 h
AUC(0-inf) ([4]; oral, range over single doses of 4–1,200 mg, read-out: geometric mean (gMean) AUC0-inf): 254 to 402000 ng·h/mL
Cmax ([4]; oral, range over single doses of 4–1,200 mg, read-out: geometric mean (gMean) Cmax): 3.57 to 16500 ng/mL
Tmax ([4]; oral, range over single doses of 4–1,200 mg, read-out: median tmax): 4 to 14 h
AUC(0-t) ([4]; po, 4 mg): 201 ng·h/mL
half-life ([4]; po, 4 mg, FDV 4 mg single oral dose, fasted, gMean (gCV%), read-out: t½ (converted)): ~39 h
AUC(0-inf) ([4]; po, 4 mg, read-out: AUC0–∞): 254 ng·h/mL
Cmax ([4]; po, 4 mg, read-out: Cmax): 3.6 ng/mL
Vd/F ([4]; po, 4 mg): 868 L
Tmax ([4]; po, 4 mg, read-out: tmax): 14 h
AUC(0-t) ([4]; po, 16 mg): 1030 ng·h/mL
half-life ([4]; po, 16 mg, FDV 16 mg single oral dose, fasted, gMean (gCV%), read-out: t½ (converted)): 31.8 h
Cmax ([4]; po, 16 mg, read-out: Cmax): 22.8 ng/mL
Vd/F ([4]; po, 16 mg): 600 L
Tmax ([4]; po, 16 mg, read-out: tmax): 8 h
AUC(0-t) ([4]; po, 48 mg): 3280 ng·h/mL
half-life ([4]; po, 48 mg, FDV 48 mg single oral dose, fasted, gMean (gCV%), read-out: t½ (converted)): 37.7 h
AUC(0-inf) ([4]; po, 48 mg, read-out: AUC0–∞): 3980 ng·h/mL
Cmax ([4]; po, 48 mg, read-out: Cmax): 86.6 ng/mL
Vd/F ([4]; po, 48 mg): 640 L
Tmax ([4]; po, 48 mg, read-out: tmax): 8 h
AUC(0-t) ([4]; po, 120 mg): 9660 ng·h/mL
half-life ([4]; po, 120 mg, FDV 120 mg single oral dose, fasted, gMean (gCV%), read-out: t½ (converted)): 27.4 h
AUC(0-inf) ([4]; po, 120 mg, read-out: AUC0–∞): 10700 ng·h/mL
Cmax ([4]; po, 120 mg, read-out: Cmax): 344 ng/mL
Vd/F ([4]; po, 120 mg): 435 L
Tmax ([4]; po, 120 mg, read-out: tmax): 7 h
AUC(0-t) ([4]; po, 240 mg): 36100 ng·h/mL
half-life ([4]; po, 240 mg, FDV 240 mg single oral dose, fasted, gMean (gCV%), read-out: t½ (converted)): 22.2 h
AUC(0-inf) ([4]; po, 240 mg, read-out: AUC0–∞): 37400 ng·h/mL
Cmax ([4]; po, 240 mg, read-out: Cmax): 2070 ng/mL
Vd/F ([4]; po, 240 mg): 200 L
Tmax ([4]; po, 240 mg, read-out: tmax): 4 h
AUC(0-t) ([4]; po, 480 mg): 74100 ng·h/mL
half-life ([4]; po, 480 mg, FDV 480 mg single oral dose, fasted, gMean (gCV%), read-out: t½ (converted)): 33.3 h
AUC(0-inf) ([4]; po, 480 mg, read-out: AUC0–∞): 80700 ng·h/mL
Cmax ([4]; po, 480 mg, read-out: Cmax): 4300 ng/mL
Vd/F ([4]; po, 480 mg): 278 L
Tmax ([4]; po, 480 mg, read-out: tmax): 4 h
AUC(0-t) ([4]; po, 800 mg): 127000 ng·h/mL
half-life ([4]; po, 800 mg, FDV 800 mg single oral dose, fasted, gMean (gCV%), read-out: t½ (converted)): ~16 h
AUC(0-inf) ([4]; po, 800 mg, read-out: AUC0–∞): 128000 ng·h/mL
Cmax ([4]; po, 800 mg, read-out: Cmax): 6630 ng/mL
Vd/F ([4]; po, 800 mg): 141 L
Tmax ([4]; po, 800 mg, read-out: tmax): 9 h
AUC(0-t) ([4]; po, 1200 mg): 397000 ng·h/mL
half-life ([4]; po, 1200 mg, FDV 1,200 mg single oral dose, fasted, gMean (gCV%), read-out: t½ (converted)): ~16 h
AUC(0-inf) ([4]; po, 1200 mg, read-out: AUC0–∞): 402000 ng·h/mL
Cmax ([4]; po, 1200 mg, read-out: Cmax): 16500 ng/mL
Vd/F ([4]; po, 1200 mg): 65 L
Tmax ([4]; po, 1200 mg, read-out: tmax): 8 h
Inter-subject variability, gCV of AUC0–∞ ([4]; most of the lower-dose groups): approximately 30%
Subjects with increases in total bilirubin ([5]; 480 mg, Part 2): eight subjects
Diarrhea and nausea ([5]; Part 2, FDV 480 mg (n = 8)): three subjects
Headache ([5]; Part 2, FDV 480 mg (n = 8)): one subject
Vomiting ([5]; Part 2, FDV 480 mg (n = 8)): two subjects
